Assay results from the Kinase Knowledgebase extract (Sharma et al. 2016).
pIC50: −log10 of the molar value.

How the values were obtained:
EGFR = EGFR (UniProt P00533); conditions: concentration not given here
CDK2 = CDK2 (UniProt P24941); assay: Enzyme Assay

EGFR, sequence (P00533 whole entry, looked up): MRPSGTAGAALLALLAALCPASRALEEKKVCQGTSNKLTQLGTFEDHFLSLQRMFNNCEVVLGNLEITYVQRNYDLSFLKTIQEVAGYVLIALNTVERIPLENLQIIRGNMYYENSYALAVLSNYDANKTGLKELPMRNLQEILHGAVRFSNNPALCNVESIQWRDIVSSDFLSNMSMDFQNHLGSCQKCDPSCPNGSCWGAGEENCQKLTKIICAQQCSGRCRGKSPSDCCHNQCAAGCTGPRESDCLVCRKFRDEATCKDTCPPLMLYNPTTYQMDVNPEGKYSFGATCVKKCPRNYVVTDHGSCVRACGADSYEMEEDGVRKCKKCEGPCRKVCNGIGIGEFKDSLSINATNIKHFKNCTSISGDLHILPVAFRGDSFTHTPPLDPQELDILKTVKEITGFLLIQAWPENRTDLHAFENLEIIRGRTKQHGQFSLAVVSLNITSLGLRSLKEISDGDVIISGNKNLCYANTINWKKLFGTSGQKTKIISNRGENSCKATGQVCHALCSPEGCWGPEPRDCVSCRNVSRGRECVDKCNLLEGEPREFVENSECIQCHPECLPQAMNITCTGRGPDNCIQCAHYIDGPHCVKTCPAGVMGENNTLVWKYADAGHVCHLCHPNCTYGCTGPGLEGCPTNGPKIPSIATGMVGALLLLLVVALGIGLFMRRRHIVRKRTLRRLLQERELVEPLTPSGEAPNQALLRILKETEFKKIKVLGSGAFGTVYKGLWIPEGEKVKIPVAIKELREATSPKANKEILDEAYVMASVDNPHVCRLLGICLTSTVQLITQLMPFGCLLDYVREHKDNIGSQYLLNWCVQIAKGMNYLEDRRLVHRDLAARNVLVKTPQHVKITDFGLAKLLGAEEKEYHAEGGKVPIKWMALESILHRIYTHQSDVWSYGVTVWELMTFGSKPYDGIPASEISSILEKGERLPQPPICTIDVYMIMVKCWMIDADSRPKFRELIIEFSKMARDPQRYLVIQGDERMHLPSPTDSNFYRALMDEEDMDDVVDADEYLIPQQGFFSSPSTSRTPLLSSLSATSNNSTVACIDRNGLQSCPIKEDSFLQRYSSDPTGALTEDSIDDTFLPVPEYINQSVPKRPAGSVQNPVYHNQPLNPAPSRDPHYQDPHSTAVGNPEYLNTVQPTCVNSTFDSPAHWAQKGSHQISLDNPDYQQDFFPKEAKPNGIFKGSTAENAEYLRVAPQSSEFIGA

inhibition (EGFR) | pIC50 (CDK2) | Compound
> 80% | 5.00 to 6.00 | COc1ccccc1-c1cc(Nc2ccc(NC(=O)CC3CCCCN3)cc2)ncn1 (configuration not stated)
> 80% | 5.00 to 6.00 | COc1ccccc1-c1cc(Nc2ccc(NC(=O)CCN)cc2)ncn1

Further lines, the compound ahead of its results:

Compound | inhibition (EGFR) | pIC50 (CDK2)
COc1ccccc1-c1cc(Nc2ccc(NC(=O)c3ccc(N4CCN(C)CC4)cc3)cc2)ncn1 | 50 to 80% | 5.00 to 6.00
COc1ccccc1-c1cc(Nc2ccc(NC(=O)[C@H]3CCCCN3)cc2)ncn1 | > 80% | 5.00 to 6.00
COc1ccccc1-c1cc(Nc2ccc(C(=O)NC3CCCNC3)cc2)ncn1 (configuration not stated) | > 80% | 6.00 to 9.00
CN[C@H](C(=O)Nc1ccc(Nc2cc(-c3ccccc3OC)ncn2)cc1)c1ccccc1 | > 80% | 5.00 to 6.00
